Laboratory results published in article PMC10394516, “The pharmacokinetic profile of brensocatib and its effect on pharmacodynamic biomarkers including NE, PR3, and CatG in various rodent species” (Frontiers in Pharmacology, 2023).

Columns and labels:
Format in all cases: in vivo
CatG [1] = test: Bone marrow CatG activity after repeated dosing, Sprague Dawley rats; details: for Reduction of CatG activity vs vehicle / Change From Vehicle Control (%) CatG: 9 days
Procedure: (§1) Briefly, animals were weighed and randomized into different treatment groups. In total, three different dosing levels of brensocatib were tested in each species and strain; each QD dosing level was equivalent to 1.5-times the matching daily BID dose. For BID dosing, the second daily dose was administered 8-h post the morning dose. C57BL/6 mice were dosed either BID or QD for 7 consecutive days at 0/0, 0.5/0.75, 2/3, and 20/30 mg/kg/day (BID/QD). BALB/c mice were dosed for 7 consecutive days at 0/0, 0.2/0.3, 2/3, and 20/30 mg/kg/day (BID/QD). SD rats were dosed for 9 consecutive days at 0/0, 0.2/0.3, 2/3, and 20/30 mg/kg/day (BID/QD). Wistar rats were dosed for 7 consecutive days at 0/0, 0.2/0.3, 2/3, and 20/30 mg/kg/day (BID/QD).
(§2) At the completion of the study, animals were sacrificed 16–24 h post their final dose. The hind limb bones (femurs and tibias) were collected at necropsy for bone marrow analysis of NSP activities by kinetic enzymatic assays ([Basso et al., 2022]). See section Quantification of Bone Marrow NSP Activities for details.
(§3) For the mice, each animal had the femurs and tibias of both hind limbs harvested. For the rat, the femur and tibia from a single hind limb per animal was harvested. Bones were kept on wet ice until processing for bone marrow collection. In brief, bone cutters were used to cut the epiphysis (knobby ends) off the long bones to expose the bone marrow filled cavity. Each bone cavity was then flushed with 5 mL/bone (mouse) or 10 mL/bone (rat) of ice-cold RPMI media through a […] and collected in a 50-mL conical tube. Cells were spun down at 2,500 × g at 4°C for 5 min and the supernatant was aspirated. After which, bone marrow cells were lysed with 1X red blood cell (RBC) lysis buffer (Abcam, ab204733) to eliminate contaminating RBCs and washed with PBS to remove any residual RBC lysis buffer. The resulting white blood cells (WBC) were subsequently lysed with 1% (v/v) Triton X-100 in PBS. Lysates were added to 96-well plates and stored at −80°C until NSP analyses.
(§4) Bone marrow lysates prepared as described above were diluted and plated onto 96-well assay plates to quantify NSP activities as described previously ([Basso et al., 2022]). Briefly, peptide substrates for NE (N-Methoxysuccinyl-Ala-Ala-Pro-Val-7-amido-4-methylcoumarin; Sigma; St. Louis, MO; Excitation/Emission at 350/450 nm), PR3 ((7-Methoxycoumarin-4-yl)acetyl-lysyl-(picolinoyl)-Tyr-Asp-Ala-Lys-Gly-Asp-N-3-(2-4-dinitrophenyl)-2-3-diaminopropyonyl-NH2); GenScript; Piscataway, NJ; Excitation/Emission at 340/430 nm), and CatG (N-Succinyl-Ala-Ala-Pro-Phe p nitroanilide; Sigma; Absorbance at 405 nm) were added at a final assay concentration of 100 μM, 40 μM, and 200 μM, respectively, and either fluorescence or absorbance was quantified using a Synergy microplate reader (BioTek; Winooski, VT). The specific NSP activity in each sample was calculated as the total activity minus the activity in the presence of a specific NSP inhibitor (if used), including elastase inhibitor (Abcam) for NE, sivelestat (Abcam) for PR3, and cathepsin G inhibitor I (Cayman Chemical; Ann Arbor, MI) for CatG. NSP concentrations were interpolated based on their activities relative to the standard curves created using active human NE protein (Sigma), active human PR3 protein (Sigma), and active human CatG protein (Sigma), respectively. Due to unavailability of commercial mouse and/or rat NE, PR3, and CatG proteins, the corresponding human proteins were used instead since their catalytic ability is considered to be conserved across species. A portion of each cell lysate sample was retained for protein quantification using a Pierce™ BCA Protein Assay Kit (Thermo Fisher). The NSP activities were normalized for the cell lysate protein concentrations.
(§5) The Pierce™ BCA Protein Assay Kit was used to measure the total protein of the samples after lysis to allow for subsequent normalization. […]

CatG [2] = test: Bone marrow CatG activity after repeated dosing, BALB/c mice; details: for Reduction of CatG activity vs vehicle / Change From Vehicle Control (%) CatG: 7 days
Procedure: as §1, §2, §3, §4, §5

NE = test: PD onset study, bone marrow NE activity, C57BL/6 mice; details: for Percent change from vehicle NE: bone marrow, 5 mg/kg BID oral
Procedure: A 14-day PD onset study was performed in female C57BL/6 mice dosed BID. Mice were dosed by oral gavage either with vehicle (0 mg/kg) or 5 mg/kg brensocatib (BID; 10 mg/kg/day) for 1, 4, 7, 10, or 14 consecutive days. Plasma was collected from animals during the first 24 h of dosing at 1, 2, 8, 9, 10, and 24 h post the initial dose. Note the 8- and 24-h plasma samples were prior to the afternoon dose and the second day dose (if applicable), respectively. Plasma was used for PK analysis via LC-MS/MS. On prescribed days, animals were sacrificed 16 h post final dose, and the hind bones (femurs and tibias) were collected at necropsy for bone marrow analysis of NSP activities by kinetic enzymatic assays.
as §3, §4
The Pierce™ BCA Protein Assay Kit was used to measure the total protein of the samples after lysis to allow for subsequent normalization. The manufacturer’s instructions for use were followed when performing this assay on a portion of the sample lysates which were diluted in PBS, the same diluent as used for preparation of the standard. Plates were read on the Biotek Synergy plate reader with Gen5 software.

[3] = BID highest dose (20 mg/kg/day)
[4] = highest dose level 20/30 (BID/QD) mg/kg/day
[5] = 5 mg/kg BID, curve fit with free min and max

Cn1c(=O)oc2ccc(-c3ccc(C[C@@H](C#N)NC(=O)[C@@H]4CNCCCO4)cc3)cc21 [brensocatib] was tested, and the “Reduction of CatG activity vs vehicle” value (CatG [1]; [3]) was 37%, the “Reduction of CatG activity vs vehicle” value (CatG [1]; QD highest dose (30 mg/kg/day)) was 43% and the “Combined BID and QD percent reduction, CatG” value (CatG [1]; [4]) was 40%. For the same molecule, the “Change From Vehicle Control (%) CatG” value (CatG [1]; oral BID 0.2 mg/kg/day) was “+4% (p = 0.9857)”, the “Change From Vehicle Control (%) CatG” value (CatG [1]; oral BID 2 mg/kg/day) was “+2% (p = 0.9972)” and the “Change From Vehicle Control (%) CatG” value (CatG [1]; oral BID 20 mg/kg/day) was −37% (p = 0.0420). For the same molecule, the “Change From Vehicle Control (%) CatG” value (CatG [1]; oral QD 0.3 mg/kg/day) was −9% (p = 0.9235), the “Change From Vehicle Control (%) CatG” value (CatG [1]; oral QD 3 mg/kg/day) was −13% (p = 0.8203) and the “Change From Vehicle Control (%) CatG” value (CatG [1]; oral QD 30 mg/kg/day) was −43% (p = 0.0348). The “Reduction of CatG activity vs vehicle” value (CatG [2]; [3]) was 92%, the “Reduction of CatG activity vs vehicle” value (CatG [2]; QD highest dose (30 mg/kg/day)) was 84% and the “Combined BID and QD percentage reduction, CatG” value (CatG [2]; [4]) was 88%. For the same molecule, the “Change From Vehicle Control (%) CatG” value (CatG [2]; oral BID 0.2 mg/kg/day, 16 h post final dose) was −1% (p = 0.9993), the “Change From Vehicle Control (%) CatG” value (CatG [2]; oral BID 2 mg/kg/day, 16 h post final dose) was −36% (p = 0.0165) and the “Change From Vehicle Control (%) CatG” value (CatG [2]; oral BID 20 mg/kg/day, 16 h post final dose) was −92% (p < 0.0001). For the same molecule, the “Change From Vehicle Control (%) CatG” value (CatG [2]; oral QD 0.3 mg/kg/day, 24 h post final dose) was −2% (p = 0.9983), the “Change From Vehicle Control (%) CatG” value (CatG [2]; oral QD 3 mg/kg/day, 24 h post final dose) was −39% (p = 0.0058) and the “Change From Vehicle Control (%) CatG” value (CatG [2]; oral QD 30 mg/kg/day, 24 h post final dose) was −84% (p < 0.0001). For the same molecule, the “Onset: Maximum reduction (plateau), NE” value (NE; [5]) was 80%, the “Onset: Time to reach 50% reduction, NE” value (NE; [5]) was 4.3 days and the “Onset: Time to reach max reduction, NE” value (NE; [5]) was 6.4 days. For the same molecule, the “Percent change from vehicle NE” value (NE; after 1 day of treatment) was −28% (p = 0.0826), the “Percent change from vehicle NE” value (NE; after 4 days of treatment) was −59% (p < 0.0001) and the “Percent change from vehicle NE” value (NE; after 7 days of treatment) was −83% (p < 0.0001). For the same molecule, the “Percent change from vehicle NE” value (NE; after 10 days of treatment) was −76% (p < 0.0001) and the “Percent change from vehicle NE” value (NE; after 14 days of treatment) was −82% (p < 0.0001).
